Measured values: ChEMBL document CHEMBL1201862, “PubChem BioAssay data set” (2004)
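Protocol summary: plate cells (96-well), add compound at 5 concentrations, incubate 48 h, interpolate endpoints linearly. GI50 is the concentration that inhibits growth by half.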 Calls of active or inactive are those of the source. Rule as the data show it: active = GI50 up to about 1.1 µM and inactive = higher.

Assays:
Test in all cases: NCI anticancer screen, dose series, 48 h
[1] = tested on: A498
[2] = tested on: SNB-19
[3] = tested on: LOX IMVI
[4] = tested on: KM12
[5] = tested on: ACHN
[6] = tested on: RPMI-8226
[7] = tested on: NCI-H460
[8] = tested on: CCRF-CEM
[9] = tested on: SK-MEL-5
[10] = tested on: HOP-62
[11] = tested on: SF-539
[12] = tested on: SF-268
[13] = tested on: A549
[14] = tested on: SK-OV-3
[15] = tested on: EKVX

Measured: GI50

CC1(C)CC(=O)c2c(oc3cc(O)c(O)cc23)C1
inactive: [1] 39 µM | [2] 82.2 µM | [3] 17.1 µM | [4] 23.9 µM | [5] 31.3 µM | [6] 17.5 µM | [7] 32 µM | [8] 9.84 µM | [9] 17.7 µM | [10] 41.4 µM | [11] 28.6 µM | [12] 24.3 µM | [13] 38 µM | [14] > 100 µM

N#Cc1ccccc1NC(=O)C(=O)C1NC(=S)NC1=O (stereo unspecified)
inactive: [1] > 100 µM | [2] > 100 µM | [3] > 100 µM | [4] > 100 µM | [5] > 100 µM | [6] > 100 µM | [7] > 100 µM | [8] > 100 µM | [9] > 100 µM | [10] > 100 µM | [11] > 100 µM | [15] > 100 µM | [12] > 100 µM | [13] > 100 µM

CC1=C(c2cc(C(=O)Nc3cc(C)ccc3C)nc(N)n2)Sc2ccccc2N1
inactive: [1] > 100 µM | [2] > 100 µM | [3] > 100 µM | [4] > 100 µM | [5] > 100 µM | [6] > 100 µM | [7] > 100 µM | [8] > 100 µM | [9] > 100 µM | [10] > 100 µM | [11] > 100 µM | [15] > 100 µM | [12] > 100 µM | [13] > 100 µM | [14] > 100 µM

C=CCc1cc(OC)c2c(c1)C(OC)CC(c1ccc(OC)c(OC)c1)O2 (stereo unspecified)
inactive: [1] > 100 µM | [2] > 100 µM | [3] > 100 µM | [4] > 100 µM | [5] 71.9 µM | [6] 38 µM | [7] > 100 µM | [8] > 100 µM | [9] > 100 µM | [10] > 100 µM | [11] > 100 µM | [15] > 100 µM | [12] 73.8 µM | [13] > 100 µM | [14] > 100 µM

COc1cc(/C=C2\[C@H]3c4c(c(OC)c(C)c(OC)c4OC)C[C@@H](C(=O)N2Cc2ccccc2)N3C(=O)OCC(C)C)c(OC)c(C)c1OC
inactive: [1] > 65.9 µM | [2] > 100 µM | [3] > 100 µM | [4] > 100 µM | [5] > 64.3 µM | [6] 13.6 µM | [8] 33.6 µM | [9] 26.2 µM | [10] > 100 µM | [11] > 100 µM | [15] > 100 µM | [12] > 100 µM | [13] > 71.1 µM | [14] > 100 µM

COC1=CC(=Nc2c(Cl)cc(Cl)cc2OC(=O)c2ccc([N+](=O)[O-])cc2)C=C(OC)C1=O
inactive: [2] 16.4 µM | [3] 1.81 µM | [4] 15.5 µM | [5] 10.7 µM | [6] 5.04 µM | [7] 14.4 µM | [8] 2.87 µM | [9] 7.05 µM | [10] 21.5 µM | [11] 5.81 µM | [15] 16 µM | [12] 9.64 µM | [13] 9.77 µM | [14] 16.5 µM

CC1=NOC(=O)/C1=C/c1ccccc1O
inactive: [2] > 100 µM | [3] > 100 µM | [4] > 100 µM | [5] > 100 µM | [7] > 100 µM | [8] > 100 µM | [9] > 100 µM | [10] > 100 µM | [11] > 100 µM | [15] > 100 µM | [12] > 100 µM | [13] > 100 µM | [14] > 100 µM

O=C(CC1(O)C(=O)Nc2c(Cl)cc(Cl)cc21)c1ccccc1 (stereo unspecified)
inactive: [1] > 100 µM | [2] > 100 µM | [3] > 100 µM | [5] > 100 µM | [6] 31.3 µM | [7] > 100 µM | [9] 60.3 µM | [11] > 100 µM | [15] 82.4 µM | [12] 76 µM | [13] > 100 µM | [14] > 100 µM

COC(=O)Nc1nc2cc(Br)ccc2[nH]1
inactive: [1] 67.8 µM | [2] > 10 µM | [3] > 100 µM | [4] 9.29 µM | [5] 95.5 µM | [6] 51.9 µM | [7] 24.9 µM | [8] 32.2 µM | [9] 8.75 µM | [10] 57.3 µM | [11] 22.6 µM | [15] > 100 µM | [12] > 100 µM | [13] 50.8 µM | [14] 27.5 µM

C=CCOC(=O)C1CCC(=O)N1C(=O)C(Cl)Cl (stereo unspecified)
inactive: [1] > 100 µM | [2] > 100 µM | [3] > 100 µM | [4] > 100 µM | [5] > 100 µM | [6] > 100 µM | [7] > 100 µM | [8] > 100 µM | [9] > 100 µM | [10] > 100 µM | [15] > 100 µM | [12] > 100 µM | [13] > 100 µM | [14] > 100 µM

COc1c(C)cc2c(C(C)C)c(O)c(O)c(C=O)c2c1O
inactive: [2] 35.7 µM | [3] 24 µM | [4] 18.3 µM | [5] 29.6 µM | [6] 37.9 µM | [7] 25.9 µM | [8] 18.4 µM | [9] 16 µM | [11] 17.8 µM | [15] 27 µM | [12] 38.4 µM | [13] 31.7 µM | [14] 29.9 µM

Cc1ccn2c(c1)nc1nc3ccccc3nc12
inactive: [2] > 100 µM | [3] > 100 µM | [4] > 100 µM | [5] 96.6 µM | [6] > 100 µM | [7] > 100 µM | [8] > 100 µM | [9] > 100 µM | [10] > 100 µM | [11] > 100 µM | [15] > 100 µM | [12] > 100 µM | [13] > 100 µM | [14] 59.6 µM

NN/C(Cc1ccccc1)=N\NO
inactive: [1] > 100 µM | [2] > 100 µM | [3] 33.3 µM | [4] 17.4 µM | [5] 69.3 µM | [7] > 100 µM | [8] 39.8 µM | [9] 53.7 µM | [11] > 100 µM | [15] > 100 µM | [12] > 100 µM | [13] > 100 µM

CC[C@@H]1C[C@H]2CC3c4[nH]c5ccc(O)cc5c4CCN(C2)C31
inactive: [2] > 100 µM | [3] > 100 µM | [4] > 100 µM | [5] > 100 µM | [6] > 100 µM | [7] > 100 µM | [8] > 100 µM | [10] > 100 µM | [11] > 100 µM | [15] > 100 µM | [12] > 100 µM | [13] > 100 µM
